# Data published in patent publication US5424303A, “Substituted aminophosphonate derivatives, process for their preparation and pharmaceutical compositions containing them” (Symphar SA, priority 1992, dated 1995).
# Structures can show the parent of a compound that is named as a salt.
# Tests used:
# [1] = test system: lipid peroxidation (rat liver homogenate); test: Antioxidant activity, inhibition of iron induced lipid peroxidation in liver homogenate; type: biochemical, Wistar rat; details: FeSO4, 37° C., 2 h; <25 μM where IC50 was not determined
# Experimental: The liver of a Wistar rat anesthetized with ether was collected and homogenized in 4 volumes of phosphate buffer (+4° C., pH 7.4) by means of a Potter. After centrifugation at 2000 rpm for 10 min the supernatant obtained was kept at +4° C. Lipid peroxidation was carried out in presence of FeSOhd according to the method described by A. T. Quitaniha et at, Ann.
# The mixture contained 1.7 ml phosphate buffer, 0.2 ml homogenate and 0.1 ml of a 2 mM FeSO4 solution. The test compounds were added in a volume of 61 μl of ethanol or DMSO. Oxydation was carried out at 37° C. for 2 h and was stopped by the addition of 20 μl of 2% ethanolic solution of BHT.
# [2] = test system: deposition of cholesterol in the arteries; details: hereditary atherosclerotic rabbits; cited from earlier work
# xanthomas = details: patients suffering from familial hypercholesterolemia; cited from earlier work
# HMGCoA reductase = test: Inhibition of the enzyme HMGCoA reductase; type: biochemical; details: positive control
# Hep G2 cells = test: Incorporation of 14C acetate in cholesterol synthesized by Hep G2 cells; type: cell-based; details: positive control
# CaCo-2 = type: cell-based
# Excerpt: In these two tests the positive control Lovastatin (hypocholesterolemic drug with HMGCoA reductase inhibitory activity) inhibits the enzyme and the ^14 C acetate incorporation by more than 98%. The mechanism of hypocholesterolemia of this class is different and potentially unique.
# plasma cholesterol = test: Hypocholesterolemic activity, plasma cholesterol in mice fed test compound in diet; type: in vivo, OF1 strain mice; details: for change in vivo at 180 mg/kg/day: Mus musculus, feed or water, 240 h, read-out: Plasma Cholesterol (% Control), 0.1% compound in food, 10 days, ca. 180 mg/kg daily, mouse; for decrease plasma cholesterol by: 0.1% in food
# Experimental: A. Hypocholesterolemic activity
# Mouse fed a normal diet is a convenient model which was proposed by several authors (P. Olivier et al, Atherosclerosis 70, 107-114, 1988) ,for the screening for hypocholesterolemic drugs. OF1 strain mice (Iffa Credo) weighing between 25 and 35 g were divided into 5 groups of 5 animals each, four groups received the test compounds and the fifth group served as control. The test compounds were dissolved in diethyl ether. The ether solution was added to food to obtain a final concentration of 0.1%. compound in food. Ether was then evaporated at room temperature. The animals were fed for 10 days, the dally food intake corresponds to ca. 180 mg/kg. After an overnight fast, they were sacrificed by decapitation under ether anesthesia. Blood samples were collected using EDTA as anticoagulant.
# Plasma cholesterol was measured by an enzymatic test (DIAMED, Morat, Switzerland). The mean values of each group receiving the test or reference compounds were expressed as percent of mean value of the contemporary control.
SMILES,IC50 [1] [µM],change in vivo at 180 mg/kg/day (plasma cholesterol) [%],"decrease plasma cholesterol by (plasma cholesterol; mouse, 10 days)",further results
CC(C)(Sc1cc(C(C)(C)C)c(O)c(C(C)(C)C)c1)Sc1cc(C(C)(C)C)c(O)c(C(C)(C)C)c1 [Probucol],> 25,–,–,effect on deposition of cholesterol in the arteries (in words) [2]: prevents the deposition of cholesterol in the arteries; effect on xanthomas (in words) (xanthomas): induces the regression of xanthomas
CC[C@H](C)C(=O)O[C@H]1C[C@@H](C)C=C2C=C[C@H](C)[C@H](CC[C@@H]3C[C@@H](O)CC(=O)O3)[C@H]21 [Lovastatin],–,–,–,"inhibition of HMGCoA reductase (HMGCoA reductase): more than 98%; inhibition of 14C acetate incorporation, Hep G2 (Hep G2 cells): more than 98%; inhibition of 14C acetate incorporation, CaCo-2 (CaCo-2): more than 98%"
"CCOP(=O)(OCC)C(NCCCc1ccccc1)c1cc(C(C)(C)C)c(O)c(C(C)(C)C)c1 (stereo not drawn) [Compound 26, Hydrochloride salt of diethyl α-(3,5-di-tert-butyl-4-hydroxyphenyl),N-(3-phenylpropyl)-animomethylphosphonate]",< 25,–,–,"Plasma Cholesterol (% Control) (plasma cholesterol; 0.1% compound in food, 10 days, ca. 180 mg/kg daily, mouse): -11 % Control"
CCOc1ccc(NC(c2cc(C(C)(C)C)c(O)c(C(C)(C)C)c2)P(=O)(OCC)OCC)cc1 (stereo not shown) [Compound 9],< 25,-31,more than 30%,–
"CCOP(=O)(OCC)C(NCCc1ccccc1)c1cc(C(C)CC)c(O)c(C(C)CC)c1 (stereo not drawn) [Compound 73, Diethyl α-(3,5 di-sec-butyl-4-hydroxyphenyl)-N-(2-phenylethyl) aminomethylphosphonate]",2.9,-40,more than 30%,–
CCOP(=O)(OCC)C(NC(C)c1cccc2ccccc12)c1cc(C(C)(C)C)c(O)c(C(C)(C)C)c1 (stereo not shown) [Compound 31],< 25,-3,–,–
